Test results published in patent US20210284659A1, “INHIBITORS OF BETA SECRETASE” (Janssen Pharmaceutica NV, priority 2017, published 2021).

Legend:
[1] = biological target: recombinant BACE1 protein (Homo sapiens, UniProt P56817); assay: BACE1 biochemical FRET based assay; settings: 450 min at room temperature, 20 μM substrate, pH 5.0
Source text: (§1) This assay is a Fluorescence Resonance Energy Transfer Assay (FRET) based assay. The substrate for this assay is an APP derived 13 amino acids peptide that contains the ‘Swedish’ Lys-Met/Asn-Leu mutation of the amyloid precursor protein (APP) beta-secretase cleavage site. This substrate also contains two fluorophores: (7-methoxycoumarin-4-yl) acetic acid (Mca) is a fluorescent donor with excitation wavelength at 320 nm and emission at 405 nm and 2,4-Dinitrophenyl (Dnp) is a proprietary quencher acceptor. […] Upon cleavage by BACE1, the fluorophore Mca is separated from the quenching group Dnp, restoring the full fluorescence yield of the donor. The increase in fluorescence is linearly related to the rate of proteolysis.
Briefly in a 384-well format recombinant BACE1 protein in a final concentration of 0.04 μg/ml is incubated for 450 minutes at room temperature with 20 μM substrate in incubation buffer (50 mM Citrate buffer pH 5.0, 0.05% PEG) in the presence of compound or DMSO. Next the amount of proteolysis is directly measured by fluorescence measurement (excitation at 320 nm and emission at 405 nm) at different incubation times (0, 30, 60, 90, 120 and 450 min). For every experiment a time curve (every 30 min between 0 min and 120 min) is used to determine the time where we find the lowest basal signal of the high control. The signal at this time (Tx) is used to subtract from the signal at 450 min. Results are expressed in RFU, as difference between T450 and Tx.
(§2) A best-fit curve is fitted by a minimum sum of squares method to the plot of % Controlmin versus compound concentration. From this an IC50 value (inhibitory concentration causing 50% inhibition of activity) can be obtained.

[2] = test system: Abeta 1-42 produced and secreted by human neuroblastoma SKNBE2 cells expressing wild type hAPP695; assay: Cellular αLisa assay in SKNBE2 cells, Abeta 1-42; format: cell-based; settings: 18 hours incubation, read-out: Cellular αLisa assay in SKNBE2 cells Abeta 42 pIC50 (converted)
Method: In two αLisa assays the levels of Abeta total and Abeta 1-42 produced and secreted into the medium of human neuroblastoma SKNBE2 cells are quantified. The assay is based on the human neuroblastoma SKNBE2 expressing the wild type Amyloid Precursor Protein (hAPP695). The compounds are diluted and added to these cells, incubated for 18 hours and then measurements of Abeta 1-42 and Abeta total are taken. Abeta total and Abeta 1-42 are measured by sandwich αLisa. αLisa is a sandwich assay using biotinylated antibody AbN/25 attached to streptavidin coated beads and antibody Ab4G8 or cAb42/26 conjugated acceptor beads for the detection of Abeta total and Abeta 1-42 respectively. In the presence of Abeta total or Abeta 1-42, the beads come into close proximity. The excitation of the donor beads provokes the release of singlet oxygen molecules that trigger a cascade of energy transfer in the acceptor beads, resulting in light emission. Light emission is measured after 1 hour incubation (excitation at […] and emission at 615 nm).
as §2

[3] = biological target: T1, recombinant BACE2 protein (Homo sapiens, UniProt Q9Y5Z0); assay: BACE2 biochemical FRET based assay; settings: 450 min at room temperature, 10 μM substrate, pH 5.0
T1 sequence (Q9Y5Z0 63-518): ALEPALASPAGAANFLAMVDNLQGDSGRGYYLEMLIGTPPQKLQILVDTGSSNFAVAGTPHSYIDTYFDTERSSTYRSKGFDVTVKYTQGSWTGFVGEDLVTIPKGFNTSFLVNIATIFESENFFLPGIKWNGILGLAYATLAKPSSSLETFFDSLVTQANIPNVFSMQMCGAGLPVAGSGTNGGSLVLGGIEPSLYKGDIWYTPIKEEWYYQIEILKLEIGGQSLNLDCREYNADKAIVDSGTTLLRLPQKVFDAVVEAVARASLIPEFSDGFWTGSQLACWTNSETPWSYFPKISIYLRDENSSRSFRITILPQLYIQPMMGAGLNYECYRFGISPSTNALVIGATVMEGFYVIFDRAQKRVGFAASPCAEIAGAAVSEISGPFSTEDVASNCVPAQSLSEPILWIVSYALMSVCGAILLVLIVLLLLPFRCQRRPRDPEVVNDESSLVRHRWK
Source text: as §1, with “assay” for “assay is an APP derived 13 amino acids peptide that”, “the beta-secretase,” for “BACE1,”
Briefly in a 384-well format recombinant BACE2 protein in a final concentration of 0.4 μg/ml is incubated for 450 minutes at room temperature with 10 μM substrate in incubation buffer (50 mM Citrate buffer pH 5.0, 0.05% PEG, no DMSO) in the absence or presence of compound. Next the amount of proteolysis is directly measured by fluorescence measurement at T=0 and T=450 (excitation at 320 nm and emission at 405 nm). Results are expressed in RFU (Relative Fluorescence Units), as difference between T450 and TO.
as §2

β-secretase II (BACE2) = biological target: T2, β-secretase II (BACE2) (Homo sapiens, UniProt Q9Y5Z0); assay: Automated (CyclOps) biochemical assay BACE2; settings: 37 °C, 60 min, pH 5.0; read-out: Automated assay BACE2 pIC50 (converted)
T2 sequence (Q9Y5Z0 63-518): T1 sequence (Q9Y5Z0 63-518)
Method: (§3) Unless otherwise indicated all biochemicals were purchased from Sigma-Aldrich Chemical Company, Poole, Dorset, U.K. and non-aqueous solvents, of analytical or higher grade, were purchased from ThermoFisher Scientific, Loughborough, U.K. MilliQ water (Elix 5 & MilliQ Gradient; Merck Millipore) was used as the base aqueous solvent to make up the biological buffers. Base assay buffer was prepared by adding a 50 mM solution of citric acid (1.00244; Merck Biosciences) to stirring solution of 50 mM trisodium citrate (1.06448; Merck Biosciences) until a final pH of 5.0 was achieved. […] All assays were routinely carried out in 384-well assay plates (Costar 4514; Corning Life Sciences) and incubated at 37±1° C. for 60 min. prior to reading the endpoint fluorescence intensity. The (7-methoxyl coumarin-4-yl)acetic acid based substrate 0-secretase substrate VI (M2465; Bachem) was prepared as a 1 mM stock in 100% DMSO (D/4121/PB08; ThermoFisher). Assay buffer was prepared by adding DMSO to base buffer to a final concentration of 1% (vol./vol.). β-secretase I (18.64 μM; “BACE1”) and β-secretase II (4.65 μM; “BACE2”) were obtained from Janssen Pharmaceutica, Beerse, Belgium and were stored as frozen aliquots (˜20 μl) and thawed as required.
(§4) The CyclOps bioassay module consisted of a fraction collection station, a reagent station, liquid handling robotics, plate store and an integrated plate reader (SpectraMAX Paradigm, TUNE cartridge, SoftMax Pro v 6.3; Molecular Devices). The fraction collection station composed of a 384 well collection plate (P-384-240SQ-C; Axygen, Union City, Calif., USA) mounted on a H-portal carriage (Festo AG & Co. KG, Esslingen, Germany), a syringe drive and a two-way six port injection valve fitted with a 200 μl loop (VICI AG International, Schenkon Switzerland). The output of the injection valve was addressable to all the positions of a 384 well collection plate. The reagent station consisted of hydraulically cooled (10-12° C.) aluminium segments; each manufactured to house a SBS microtiter plate footprint. Independent addressable reagent stations were housed within these sections. Where required, custom aluminium housings were used to accommodate standard laboratory plastic ware (e.g. Eppendorf tubes, Falcon tubes, etc.). As and when required the reagent reservoirs were covered and the lids contained holes through which the Teflon-coated probe could access solutions. The reagents present on the liquid handling system were: • Probe wash solution (˜150 ml; 33.3:33.3:33.3 water:propan-2-ol (P/7508/17; ThermoFisher):methanol (M/4058/17; ThermoFisher) contained in a covered reagent reservoir (390007; Porvair Sciences Ltd., Leatherhead, UK). • Assay buffer solution • HPLC grade water • 40 nM BACE1 diluted in base buffer contained in a 5 ml Eppendorf tube (0030 119.401; Eppendorf) • 400 nM BACE2 diluted in 25 mM tris (648311; Merck Biosciences, Nottingham, U.K.), pH 7.5 containing 100 mM sodium chloride and 20% glycerol (16374; USB Corp., Cleveland, Ohio, USA) contained in a 1.5 ml Eppendorf tube (0030 000.919; Eppendorf) • 1 mM substrate in 100% DMSO contained in a 1.5 ml Eppendorf tube (maintained at ambient temperature) • Two empty 1.5 ml Eppendorf tubes
(§5) The liquid handling system composed of a LISSY system (Zinsser Analytik GmbH, Frankfurt, Germany) equipped with gripper arm and single teflon-coated stainless steel probe. […]

β-secretase I (BACE1) = β-secretase I (BACE1) (Homo sapiens, UniProt P56817); assay: Automated (CyclOps) biochemical assay BACE1; settings: 37 °C, 60 min, pH 5.0; read-out: Automated assay BACE1 pIC50 (converted)
Chain of β-secretase I (BACE1) (P56817 46-501): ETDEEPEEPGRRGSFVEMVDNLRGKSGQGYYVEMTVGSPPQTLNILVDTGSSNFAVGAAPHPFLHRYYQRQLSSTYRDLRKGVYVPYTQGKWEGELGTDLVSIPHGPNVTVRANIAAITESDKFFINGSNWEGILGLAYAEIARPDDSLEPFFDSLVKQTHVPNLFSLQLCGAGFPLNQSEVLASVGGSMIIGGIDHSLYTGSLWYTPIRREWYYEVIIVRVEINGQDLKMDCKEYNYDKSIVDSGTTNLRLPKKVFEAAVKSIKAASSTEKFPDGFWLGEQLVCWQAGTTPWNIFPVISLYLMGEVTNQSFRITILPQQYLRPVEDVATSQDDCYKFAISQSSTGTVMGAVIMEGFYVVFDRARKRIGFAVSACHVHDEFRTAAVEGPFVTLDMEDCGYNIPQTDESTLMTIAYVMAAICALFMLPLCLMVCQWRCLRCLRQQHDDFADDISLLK
Method: as §3, §4, §5

Chain of recombinant BACE1 protein (P56817 46-501): as above

Biochemical FRET based assay pIC50 [1] | IC50 [2] | Biochemical FRET based assay pIC50 [3] | IC50 (β-secretase II (BACE2)) | IC50 (β-secretase I (BACE1)) | Compound
8.52 | 0.000759 µM | 8.18 | – | – | COc1ncc(CC2CCOCC2)c2c1C[C@]1(c3ccc(F)cc3F)N=C(N)SC[C@@H]1C2 [Compound 1]
8.23 | 0.00263 µM | 7.36 | – | – | COc1ncc(Cc2c(C)noc2C)c2c1C[C@]1(c3ccc(F)cc3F)N=C(N)SC[C@@H]1C2 [Compound 2]
– | – | – | 0.355 µM | 0.0229 µM | COc1ncc(Cc2ccccc2C)c2c1C[C@]1(c3ccc(F)cc3F)N=C(N)SC[C@@H]1C2 [Compound 3]
7.64 | 0.0676 µM | 7.1 | 0.204 µM | 0.049 µM | COc1ccc(Cc2cnc(OC)c3c2C[C@H]2CSC(N)=N[C@@]2(c2ccc(F)cc2F)C3)cc1 [Compound 5]
– | – | – | 0.191 µM | 0.0759 µM | COc1cccc(Cc2cnc(OC)c3c2C[C@H]2CSC(N)=N[C@@]2(c2ccc(F)cc2F)C3)c1 [Compound 6]
– | – | – | 0.11 µM | 0.0617 µM | COc1ncc(Cc2cccc(Cl)c2)c2c1C[C@]1(c3ccc(F)cc3F)N=C(N)SC[C@@H]1C2 [Compound 7]
– | – | – | 0.219 µM | 0.195 µM | COc1cc(Cc2cnc(OC)c3c2C[C@H]2CSC(N)=N[C@@]2(c2ccc(F)cc2F)C3)cc(OC)c1 [Compound 8]
7.99 | 0.0427 µM | 6.56 | – | – | COc1ncc(Cc2c(C)cccc2C)c2c1C[C@]1(c3ccc(F)cc3F)N=C(N)SC[C@@H]1C2 [Compound 9]
